Substitutions are numbered along the chain they refer to.
How the values were obtained:
[1] = test system: Human breast cancer MDA-MB-231 cells; test: MTT cell proliferation assay in MDA-MB-231 cells; format: cell-based; conditions: indicated concentrations, 24 h, MTT
Procedure: Human breast cancer MDA-MB-231 cells were treated with 25 or 50 μM EGCG analogs for 24 hours, followed by MTT assay. Pro-EGCG was used as a comparison.
Human breast cancer MDA-MB-231 cells with high COMT activity were treated with 50 μM EGCG analogs for 24 hours in the absence or presence of 10 μM DNC, followed by MTT assay. Pro-EGCG was used as a comparison.
(A) EGCG analogs 23 and 30 inhibited breast cancer cell proliferation. MDA-MB-231 cells were treated with indicated concentrations of 23, 30 or metformin for 24 h, followed by a MTT assay. *, P<0.1; **, P<0.01. Columns, mean of three experiments; bars, SD. (B) EGCG analogs 23 and 30 activated AMPK at a dose-dependent manner, measured by elevated level of phosphor-AMPKα and its downstream proteins of phosphor-Raptor. […] MDA-MB-231 cells were treated with indicated concentrations of 23 or 30 for 3 h, followed by Western blot analysis with the indicated antibodies. The numbers underneath the Western results of p-AMPKα indicated normalized phosphor-AMPKα/β-actin ratios. […]
(§1) Cells were grown in a 96-well plate. Triplicate wells of cells were treated with indicated concentrations of EGCG or EGCG analogs for 24 h. After aspiration of medium, MTT (1 mg/ml) was then added to the cell cultures, followed by incubation for 3 h at 37° C. After cells were crystallized, MTT was removed and DMSO was added to dissolve the metabolized MTT product. The absorbance was then measured on a Wallac Victor3 1420 Multi-label counter at 540 nm.

[2] = test system: human multiple myeloma ARP cells; test: MTT assay in multiple myeloma ARP cells, alone or with Velcade; format: cell-based; conditions: 20 μM plus varying doses of Velcade, 48 h
Procedure: The cells were treated with Velcade™ alone or with 20 μM of compounds 5, 7 and 23 or in combination with varying doses of Velcade™ for 48 hrs, followed by a MTT assay.
Human multiple myeloma cells (Arp and Opm1) cells, kindly provided by Dr. Ramesh Batchu (Wayne State University), were grown in RPMI-1640 medium supplemented with 10% FBS, 100 units/ml of penicillin, and 100 μg/ml of streptomycin. Cells were maintained at 37° C. in 5% CO2 (Mujtaba T, et al., Int J Mol Med. (2012) 29(1):102-6).
as §1

[3] = molecular target: T1, purified rabbit 20S proteasome (Oryctolagus cuniculus, UniProt G1T4Q9); test: Inhibition of chymotrypsin-like activity of purified 20S proteasome; format: biochemical; conditions: purified 20S proteasome, concentration not stated
T1 sequence (G1T4Q9 60-263): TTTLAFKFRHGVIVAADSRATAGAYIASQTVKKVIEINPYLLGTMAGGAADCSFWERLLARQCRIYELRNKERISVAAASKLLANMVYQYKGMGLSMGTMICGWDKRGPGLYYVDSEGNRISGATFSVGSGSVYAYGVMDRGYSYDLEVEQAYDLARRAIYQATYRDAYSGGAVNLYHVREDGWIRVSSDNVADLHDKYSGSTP
Procedure: Purified 20S proteasome was incubated with compound 5, 7, 16, or 21 (A) or MDA-MB-231 cell extract (5.7 μg) was incubated with compound 6, 8, 17, or 22 (B) at indicated concentrations for 2 hours, followed by measuring the proteasomal chymotrypsin-like activity. EGCG was used as a comparative standard.
Purified rabbit 20S proteasome and fluorogenic substrate Suc-LLVY-AMC for the proteasomal chymotrypsin like (CT-like) activity were obtained from Calbiochem Inc. (San Diego, Calif.). Fetal bovine serum (FBS) was from Tissue Culture Biologicals (Tulare, Calif.). Penicillin and streptomycin were purchased from Invitrogen Co. (Carlsbad, Calif.). RPMI 1640 medium was purchased from Invitrogen Co. (Carlsbad, Calif.). MTT (3-4,5-dimethylthiazol-2-yl-2.5-diphenyl-tetrazolium bromide) was purchased from Sigma-Aldrich.
A purified rabbit 20S proteasome (35 ng) was incubated with 20 μM of substrate Suc-LLVY-AMC in 100 μl assay buffer (20 mM Tris-HCl, pH 7.5), in the presence of EGCG or EGCG analogs at different concentrations or the solvent for 2 h at 37° C., followed by measurement of hydrolysis of the fluorogenic substrates using a Wallac Victor3™ multi-label counter with 355-nm excitation and 460-nm emission wavelengths.

[4] = molecular target: T2, proteasomal chymotrypsin-like activity of MDA-MB-231 cell extracts (Homo sapiens, UniProt P28074); test: Proteasomal chymotrypsin-like activity in MDA-MB-231 cell lysate with high COMT activity; format: biochemical; conditions: 10 μM
T2 construct: endogenous in cells; host or cells: MDA-MB-231 human breast cancer cells (ATCC), cell extract
T2 sequence (P28074 60-263): T1 sequence (G1T4Q9 60-263) with D197E
Procedure: (A) MDA-MB-231 cell extracts (5.7 μg) were incubated with different concentrations of compound 5 or 7 or EGCG for 2 hours, followed by performance of proteasomal chymotrypsin-like activity assay. EGCG was used as a control. (B) MDA-MB-231 cell extracts (5.7 μg) were pre-treated with 10 μM DNC for 20 minutes, followed by co-incubation with compound 5, or 7 or EGCG for 2 h. The proteasomal chymotrypsin-like activity was measured.
Human breast cancer MDA-MB-231 cell lysate that contains high COMT activity were treated with varying concentrations of compound 5 or 7. […] Thus, consistent with previous reports EGCG is also susceptible to methylation by COMT (H., Lu, X. Meng, C. S. Yang, Drug Metabolism and Disposition; 31; 572, 2003).

SMILES | inhibition of cell proliferation (in words) [1] | effect on cell proliferation when combined with Velcade [2] | proteasomal inhibition (in words) [3] | inhibition at 10 µM [4] [%]
Nc1ccc(C(=O)O[C@H]2Cc3ccccc3C[C@H]2OC(=O)c2ccc(N)cc2)cc1 [Compound 30] | inhibit cell proliferation in a dose-dependent manner |  |  | 
O=C(O[C@H]1Cc2ccccc2C[C@H]1OC(=O)c1cc(O)c(Br)c(O)c1)c1cc(O)c(Br)c(O)c1 [Compound 23] | inhibit cell proliferation in a dose-dependent manner | synergistic inhibitory effect |  | 
O=C(O[C@@H]1Cc2c(O)cc(O)cc2O[C@@H]1c1cc(O)c(O)c(O)c1)c1cc(O)c(O)c(O)c1 [Compound 1, (−)-Epigallocatechin gallate, reference compound] |  |  | potently inhibited | ~22

From patent US20140378541A1, “Synthetic Epigallocatechin Gallate (EGCG) Analogs” (WAYNE STATE UNIVERSITY, priority 2011, published 2014)
